Results published in patent US8217029B2, “Oxazolidinone antibiotics” (Actelion Pharmaceuticals Ltd, priority 2007, dated 2012).
In brackets after ≈: the same amount, converted by molar mass.

Test system: S aureus A798
Assay: Minimal inhibitory concentration (MIC), microdilution method in cation-adjusted Mueller-Hinton Broth following NCCLS guidelines
Assay type: cell-based
Details: pH of test medium 7.2-7.3
Method in brief: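 Broth microdilution per NCCLS M7-A4 in cation-adjusted Mueller-Hinton broth at pH 7.2-7.3; MIC reported in mg/l.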

Row | MIC | SMILES
1 | ≤ 0.031 mg/L | COc1ccc2nccc(N3CC[C@@H](CNC[C@@H]4CN(c5ccc6c(c5)NC(=O)CO6)C(=O)O4)C3)c2n1 [Example 168, 6-[(R)-5-({[(S)-1-(6-Methoxy-[1,5]naphthyridin-4-yl)-pyrrolidin-3-ylmethyl]-amino}-methyl)-2-oxo-oxazolidin-3-yl]-4H-benzo[1,4]oxazin-3-one]
2 | ≤ 0.031 mg/L | COc1ccc2ncc(F)c(N3CC(NC[C@@H]4CN(c5ccc(C)c(F)c5)C(=O)O4)C3)c2n1 [Example 46, (R)-5-{[1-(3-Fluoro-6-methoxy-[1,5]naphthyridin-4-yl)-azetidin-3-ylamino]-methyl}-3-(3-fluoro-4-methyl-phenyl)-oxazolidin-2-one]
3 | ≤ 0.031 mg/L | COc1ccc2nccc(N3CC[C@H](NC[C@@H]4CN(c5ccc6c(c5)OCCO6)C(=O)O4)C3)c2n1 [Example 41, (R)-3-(2,3-Dihydro-benzo[1,4]dioxin-6-yl)-5-{[(S)-1-(6-methoxy-[1,5]naphthyridin-4-yl)-pyrrolidin-3-ylamino]-methyl}-oxazolidin-2-one]
4 | 0.063 mg/L | COc1ccc2nccc(N3CCC(O)(CNC[C@@H]4CN(c5ccc6c(c5)NC(=O)CS6)C(=O)O4)C3)c2n1 (mixture of isomers) [Example 129, 6-[(R)-5-({[(RS)-3-Hydroxy-1-(6-methoxy-[1,5]naphthyridin-4-yl)-pyrrolidin-3-ylmethyl]-amino}-methyl)-2-oxo-oxazolidin-3-yl]-4H-benzo[1,4]thiazin-3-one]
5 | ≤ 0.031 mg/L | COc1ccc2nccc(N3CC(N(C)C[C@@H]4CN(c5ccc6c(n5)NC(=O)CO6)C(=O)O4)C3)c2n1 [Example 150, 6-[(R)-5-({[1-(6-Methoxy-[1,5]naphthyridin-4-yl)-azetidin-3-yl]-methyl-amino}-methyl)-2-oxo-oxazolidin-3-yl]-4H-pyrido[3,2-b][1,4]oxazin-3-one]
6 | 4 mg/L (≈ 7.73 µM) | COc1ccc2nccc(N3CCN(C[C@@H]4CN(c5ccc(OC)c(C(F)(F)F)c5)C(=O)O4)CC3)c2n1 [Example 33, (R)-5-[4-(6-Methoxy-[1,5]naphthyridin-4-yl)-piperazin-1-ylmethyl]-3-(4-methoxy-3-trifluoromethyl-phenyl)-oxazolidin-2-one]
7 | 0.063 mg/L (≈ 0.125 µM) | COc1ccc2nccc(N3C[C@@H]4C[C@H]3CN4C[C@@H]3CN(c4ccc5c(c4)NC(=O)CO5)C(=O)O3)c2n1 [Example 151, 6-{(R)-5-[(1S,4S)-5-(6-Methoxy-[1,5]naphthyridin-4-yl)-2,5-diaza-bicyclo[2.2.1]hept-2-ylmethyl]-2-oxo-oxazolidin-3-yl}-4H-benzo[1,4]oxazin-3-one]
8 | ≤ 0.031 mg/L | COc1ccc2nccc(N3C[C@H](NC[C@@H]4CN(c5ccc6c(c5)NC(=O)CS6)C(=O)O4)[C@@H](OC)C3)c2n1 [Example 182, 6-((R)-5-{[(3S,4S)-4-Methoxy-1-(6-methoxy-[1,5]naphthyridin-4-yl)-pyrrolidin-3-ylamino]-methyl}-2-oxo-oxazolidin-3-yl)-4H-benzo[1,4]thiazin-3-one]
9 | 0.25 mg/L (≈ 0.466 µM) | COc1ccc2nccc(N3C[C@H](NC[C@@H]4CN(c5ccc6c(c5)NC(=O)CS6)C(=O)O4)C[C@H]3CO)c2n1 [Example 79, 6-((R)-5-{[(3R,5S)-5-Hydroxymethyl-1-(6-methoxy-[1,5]naphthyridin-4-yl)-pyrrolidin-3-ylamino]-methyl}-2-oxo-oxazolidin-3-yl)-4H-benzo[1,4]thiazin-3-one]
10 | 0.5 mg/L (≈ 1.05 µM) | CCOc1ccc(N2C[C@@H](CNC3CCN(c4ccnc5ccc(OC)nc45)CC3)OC2=O)cc1 [Example 184, (R)-3-(4-Ethoxy-phenyl)-5-{[1-(6-methoxy-[1,5]naphthyridin-4-yl)-piperidin-4-ylamino]-methyl}-oxazolidin-2-one]
11 | 0.25 mg/L | COc1ccc2nccc(N3CC[C@@H]4CN(C(=O)[C@@H]5CN(c6ccc7c(c6)OCCO7)C(=O)O5)C[C@@H]43)c2n1 (mixture of isomers) [Example 92, (S)-3-(2,3-Dihydro-benzo[1,4]dioxin-6-yl)-5-[(3aR*,6aR*)-1-(6-methoxy-[1,5]naphthyridin-4-yl)-hexahydro-pyrrolo[3,4-b]pyrrole-5-carbonyl]-oxazolidin-2-one]
12 | ≤ 0.031 mg/L | COc1ccc2ccc(F)c(N3CC(NC[C@@H]4CN(c5ccc6c(c5)NC(=O)CS6)C(=O)O4)C3)c2n1 [Example 159, 6-((R)-5-{[1-(7-Fluoro-2-methoxy-quinolin-8-yl)-azetidin-3-ylamino]-methyl}-2-oxo-oxazolidin-3-yl)-4H-benzo[1,4]thiazin-3-one]
13 | 0.25 mg/L (≈ 0.537 µM) | COc1ccc2nccc(N3CC[C@H](NC(=O)[C@@H]4CN(c5ccc(C)c(F)c5)C(=O)O4)C3)c2n1 [Example 63, (S)-3-(3-Fluoro-4-methyl-phenyl)-2-oxo-oxazolidine-5-carboxylic acid [(S)-1-(6-methoxy-[1,5]naphthyridin-4-yl)-pyrrolidin-3-yl]-amide]
14 | ≤ 0.031 mg/L | COc1ccc2nccc(N3CCC(O)(CC4CN(c5ccc6c(c5)OCCO6)C(=O)O4)CC3)c2n1 (racemic) [Example 5, (RS)-3-(2,3-Dihydro-benzo[1,4]dioxin-6-yl)-5-[4-hydroxy-1-(6-methoxy-[1,5]naphthyridin-4-yl)-piperidin-4-ylmethyl]-oxazolidin-2-one]
15 | 0.25 mg/L (≈ 0.571 µM) | COc1ccc2nccc(N3CC(N(C)C[C@@H]4CN(c5cccc(F)c5)C(=O)O4)C3)c2n1 [Example 147, (R)-3-(3-Fluoro-phenyl)-5-({[1-(6-methoxy-[1,5]naphthyridin-4-yl)-azetidin-3-yl]-methyl-amino}-methyl)-oxazolidin-2-one]
16 | ≤ 0.031 mg/L | COc1ccc2nccc(N3CC[C@@H](NC[C@@H]4CN(c5ccc6c(c5)OCCO6)C(=O)O4)C3)c2n1 [Example 42, (R)-3-(2,3-Dihydro-benzo[1,4]dioxin-6-yl)-5-{[(R)-1-(6-methoxy-[1,5]naphthyridin-4-yl)-pyrrolidin-3-ylamino]-methyl}-oxazolidin-2-one]
17 | ≤ 0.031 mg/L | COc1ccc2ncc(F)c(N3CCC(NC[C@@H]4CN(c5ccc6c(c5)NC(=O)CS6)C(=O)O4)CC3)c2n1 [Example 122, 6-((R)-5-{[1-(3-Fluoro-6-methoxy-[1,5]naphthyridin-4-yl)-piperidin-4-ylamino]-methyl}-2-oxo-oxazolidin-3-yl)-4H-benzo[1,4]thiazin-3-one]
18 | 0.125 mg/L (≈ 0.286 µM) | COc1ccc2nccc(N3CCN(C[C@H]4CN(c5cccc(F)c5)C(=O)O4)CC3)c2n1 [Example 40, (S)-3-(3-Fluoro-phenyl)-5-[4-(6-methoxy-[1,5]naphthyridin-4-yl)-piperazin-1-ylmethyl]-oxazolidin-2-one]
19 | 0.5 mg/L (≈ 0.908 µM) | COc1ccc2nccc(N3C[C@@H](NC[C@@H]4CN(c5ccc6c(c5)NC(=O)CS6)C(=O)O4)[C@H](C(=O)O)C3)c2n1 (relative stereo) [Example 74, (3R*,4S*)-1-(6-Methoxy-[1,5]naphthyridin-4-yl)-4-{[(R)-2-oxo-3-(3-oxo-3,4-dihydro-2H-benzo[1,4]thiazin-6-yl)-oxazolidin-5-ylmethyl]-amino}-pyrrolidine-3-carboxylic acid]
20 | 0.125 mg/L (≈ 0.27 µM) | COc1ccc2nccc(N3CCN(C[C@@H]4CN(c5cccc(N(C)C)c5)C(=O)O4)CC3)c2n1 [Example 34, (R)-3-(3-Dimethylamino-phenyl)-5-[4-(6-methoxy-[1,5]naphthyridin-4-yl)-piperazin-1-ylmethyl]-oxazolidin-2-one]
21 | ≤ 0.031 mg/L | COc1ccc2nccc(N3CC[C@@H](NCCC4CN(c5ccc6c(c5)NC(=O)CS6)C(=O)O4)C3)c2n1 (mixture of isomers) [Example 87, 6-((RS)-5-{2-[(R)-1-(6-Methoxy-[1,5]naphthyridin-4-yl)-pyrrolidin-3-ylamino]-ethyl}-2-oxo-oxazolidin-3-yl)-4H-benzo[1,4]thiazin-3-one]
22 | 0.25 mg/L (≈ 0.524 µM) | COc1ccc2nccc(N3CC(CNC[C@H]4CN(c5ccc6c(c5)OCCO6)C(=O)O4)C3)c2n1 [Example 1, (S)-3-(2,3-Dihydro-benzo[1,4]dioxin-6-yl)-5-({[1-(6-methoxy-[1,5]naphthyridin-4-yl)-azetidin-3-ylmethyl]-amino}-methyl)-oxazolidin-2-one]
23 | 0.063 mg/L (≈ 0.132 µM) | COc1ccc2nccc(N3CC(N(C)C[C@@H]4CN(c5ccc6scnc6c5)C(=O)O4)C3)c2n1 [Example 146, (R)-3-Benzothiazol-5-yl-5-({[1-(6-methoxy-[1,5]naphthyridin-4-yl)-azetidin-3-yl]-methyl-amino}-methyl)-oxazolidin-2-one]
24 | ≤ 0.031 mg/L | COc1ccc2nccc(N3CC(NC[C@@H]4CN(c5ccc6c(c5)NC(=O)CO6)C(=O)O4)C3)c2c1 [Example 156, 6-((R)-5-{[1-(6-Methoxy-quinolin-4-yl)-azetidin-3-ylamino]-methyl}-2-oxo-oxazolidin-3-yl)-4H-benzo[1,4]oxazin-3-one]
25 | ≤ 0.031 mg/L | COc1ccc2nccc(N3CC(N(C)C[C@@H]4CN(c5ccc6c(c5)NC(=O)CS6)C(=O)O4)C3)c2n1 [Example 56, 6-[(R)-5-({[1-(6-Methoxy-[1,5]naphthyridin-4-yl)-azetidin-3-yl]-methyl-amino}-methyl)-2-oxo-oxazolidin-3-yl]-4H-benzo[1,4]thiazin-3-one]
26 | 0.125 mg/L (≈ 0.27 µM) | COc1ccc2nccc(N3CC(N(C)C[C@@H]4CN(c5ccc6c(c5)OCO6)C(=O)O4)C3)c2n1 [Example 145, (R)-3-Benzo[1,3]dioxol-5-yl-5-({[1-(6-methoxy-[1,5]naphthyridin-4-yl)-azetidin-3-yl]-methyl-amino}-methyl)-oxazolidin-2-one]

Row | SMILES | MIC
27 | COc1ccc2nccc(C3(O)CCN(C[C@@H]4CN(c5ccc6c(c5)NC(=O)CO6)C(=O)O4)CC3)c2c1 [Example 132, 6-{(R)-5-[4-Hydroxy-4-(6-methoxy-quinolin-4-yl)-piperidin-1-ylmethyl]-2-oxo-oxazolidin-3-yl}-4H-benzo[1,4]oxazin-3-one] | 0.063 mg/L (≈ 0.125 µM)
28 | COc1ccc2ncc(F)c(C3(O)CCN(C[C@@H]4CN(c5ccc6c(c5)NC(=O)CS6)C(=O)O4)CC3)c2n1 [Example 126, 6-{(R)-5-[4-(3-Fluoro-6-methoxy-[1,5]naphthyridin-4-yl)-4-hydroxy-piperidin-1-ylmethyl]-2-oxo-oxazolidin-3-yl}-4H-benzo[1,4]thiazin-3-one] | ≤ 0.031 mg/L
